The test system of one series is CCRF-CEM. Put plainly: (§1) Cytotoxicity against human CEM cells assessed as reduction in cell viability. It counts as toxicity, cell-based. The note with it: ccrf-cem.
The test system of a further series is Human coronavirus OC43. As to the kind of experiment: Antiviral activity against Human coronavirus OC43 infected in Vero cells assessed as reduction in viral yield preincubated with virus for 1 hr followed by washout and compound treatment and measured after 3 days by qRT-PCR analysis. Type of series: functional, organism-based. The note with it: Betacoronavirus 1, Vero; for EC90: 72 h, time 3 day. In general terms: Real-time PCR tracks product formation cycle by cycle.

Another series relates to Huh-7. Put plainly: (§2) Cytotoxicity against human Huh-7 cells assessed as reduction in cell viability. It counts as toxicity, cell-based. The note with it: huh-7.
Series [1] has as its system SARS-CoV-2. As to the kind of experiment: Antiviral activity against SARS-CoV-2 infected in Vero cells assessed as reduction in viral yield measured after 48 hrs by qRT-PCR analysis. It counts as functional, organism-based. The note with it: Severe acute respiratory syndrome coronavirus 2, Vero; for EC50: 48 h; for EC90: time 48 hrs.
The nature of series [2]: Cytotoxicity against human PBMC cells assessed as reduction in cell viability. It counts as toxicity, cell-based.
A short description of series [3]: Cytotoxicity against African green monkey Vero cells assessed as reduction in cell viability. It counts as toxicity, cell-based. The note with it: chlorocebus sabaeus.
Series [4] in a line: Cytotoxicity against human Caco-2 cells assessed as reduction in cell viability. The note with it: Caco-2 cells. It counts as toxicity, cell-based.
The nature of series [5]: as §1. It counts as toxicity, cell-based, CCRF-CEM. The note with it: CEM (CCRF-CEM) cells.
Series [6] deals with SARS-CoV-2. As to the kind of experiment: Antiviral activity against wild type SARS-CoV-2 Omicron BA.1 infected in HEK293T cells measured after 48 hrs by Nano-Glo luciferase assay. It counts as functional, organism-based. The note with it: Severe acute respiratory syndrome coronavirus 2, Omicron BA.1, HEK-293T.
Series [7] can be described thus: as §2. The note with it: Huh-7 cells. It counts as toxicity, cell-based.
Series [8] concerns SARS-CoV-2. Put plainly: Antiviral activity against SARS-CoV-2 infected in human Calu-3 cells assessed as reduction in viral yield measured after 72 hrs by qRT-PCR analysis. Type of series: functional, organism-based, Severe acute respiratory syndrome coronavirus 2.
A short description of series [9]: Cytotoxicity against human Calu-3 cells assessed as reduction in cell viability. Type of series: toxicity, cell-based. The note with it: Calu-3 cells.
In series [10] the test system is SARS-CoV-2. Put plainly: Antiviral activity against SARS-CoV-2 infected in human Caco-2 cells assessed as reduction in viral yield measured after 72 hrs by qRT-PCR analysis. The note with it: Severe acute respiratory syndrome coronavirus 2, Caco-2; time 72 hrs. It counts as functional, organism-based, Severe acute respiratory syndrome coronavirus 2.
Series [11] has as its system SARS-CoV-2. As to the kind of experiment: Antiviral activity against wild type SARS-CoV-2 WA1 infected in HEK293T cells measured after 48 hrs by Nano-Glo luciferase assay. The note with it: Severe acute respiratory syndrome coronavirus 2, WA1, HEK-293T. It counts as functional, organism-based.
The test system of series [12] is SARS-CoV-2. As to the kind of experiment: Antiviral activity against SARS-CoV-2 hCoV-19/USA-WA1/2020 Washington strain infected in Normal human bronchial/tracheal epithelial cells cultured in air-liquid interface media assessed as reduction in viral yield pretreated with compound followed by viral infection for 4 hrs post washout and measured 3 days after virus removal by qRT-PCR analysis. It counts as functional, organism-based. The note with it: Severe acute respiratory syndrome coronavirus 2, hCoV-19/USA-WA1/2020 Washington, Epithelial cell.

For series [13], the system named is SARS-CoV-2. Put plainly: Antiviral activity against SARS-CoV-2 hCoV-19/USA/GA-EHC-2811C/2021 (Omicron B.1.1.529) infected in human Calu-3 cells assessed as reduction in viral yield measured after 48 hrs by qRT-PCR analysis. It counts as functional, organism-based. The note with it: Severe acute respiratory syndrome coronavirus 2, hCoV-19/USA/GA-EHC-2811C/2021 (Omicron B.1.1.529).

The results in this text go back to ChEMBL document CHEMBL5505997, “Synthesis and biological evaluation of novel peptidomimetic inhibitors of the coronavirus 3C-like protease” (Eur J Med Chem, 2024).

Each structure is given as a SMILES string.

The CC50 is the concentration giving 50% cytotoxicity. Usually EC50 stands for the concentration giving half of the maximal effect. In general, EC90 refers to the concentration needed for an effect of 90%. For the compound `CC(C)C[C@H](NC(=O)[C@H](Cc1ccc(O)cc1)NC(=O)OCc1ccccc1)C(=O)N[C@H](C=O)C[C@@H]1CCCNC1=O`, the CC50 (with CCRF-CEM; with Huh-7; in series [2] (pbmc); in series [3] (vero)) was over 100 µM in each case. For the same compound, the EC50 in the series with Human coronavirus OC43 is 8.5 µM; with SARS-CoV-2 [1], over 10 µM. The values for the EC90 with Human coronavirus OC43 and in the series with SARS-CoV-2 [1] were 47.6 µM and over 10 µM, respectively.

As to `CC(C)C[C@H](NC(=O)[C@H](Cc1cccc2ccccc12)NC(=O)OCc1ccccc1)C(=O)N[C@H](/C=C(\C#N)C(N)=O)C[C@@H]1CCCNC1=O`, the CC50 in the series with CCRF-CEM is 29 µM; with Huh-7 it was 29 µM; in [2] (pbmc), over 100 µM; in [3] (vero), over 100 µM. In addition, the EC50 was 0.9 µM in the series with Human coronavirus OC43 and over 10 µM in the series with SARS-CoV-2 [1]. Moreover, the EC90 in the series on Human coronavirus OC43 is 7 µM; in the series with SARS-CoV-2 [1], over 10 µM.

For `Cc1cc(C(=O)N[C@@H](Cc2cccc3ccccc23)C(=O)N[C@@H](CC(C)C)C(=O)N[C@@H](C[C@@H]2CCCNC2=O)C(O)C(=O)NC2CC2)no1` (some centres not stated), the CC50 (with CCRF-CEM; in the series with Huh-7; in [2] (pbmc); in series [3] (vero)) was over 100 µM each time. In addition, the values for the EC50 in the series with Human coronavirus OC43 and with SARS-CoV-2 [1] were 36.7 µM and over 10 µM, respectively. The EC90 with Human coronavirus OC43 was 87.4 µM; with SARS-CoV-2 [1], over 10 µM.

In the case of `CC(C)C[C@H](NC(=O)[C@H](Cc1ccc(F)cc1)NC(=O)OCc1ccccc1)C(=O)N[C@H](C=O)C[C@@H]1CCCNC1=O`, the CC50 (in the series on CCRF-CEM; in the series on Huh-7; in [2] (pbmc); in [3] (vero)) was over 100 µM throughout. In addition, the EC50 in the series on Human coronavirus OC43 stood at 0.8 µM; in the series on SARS-CoV-2 [1], 6.7 µM. In addition, the EC90 worked out at 2.6 µM in the series with Human coronavirus OC43 and 7.4 µM in the series on SARS-CoV-2 [1].

With `CC(C)C[C@H](NC(=O)[C@H](Cc1cccc2ccccc12)NC(=O)OCc1ccccc1)C(=O)N[C@H](C=O)Cn1ccnn1`, the cytotoxic concentration (CC50) with CCRF-CEM amounted to 25.3 µM; with Huh-7, 25.3 µM; in series [2] (pbmc) it was 35.7 µM; in [3] (vero) it was 35.7 µM. Also, the figures for the EC50 in the series with Human coronavirus OC43 and in the series on SARS-CoV-2 [1] were 53.5 µM and 4.7 µM, respectively. The EC90 turned out to be 99 µM in the series with Human coronavirus OC43 and 9.5 µM with SARS-CoV-2 [1].

Consider `Cc1ccsc1C(=O)N[C@@H](Cc1cccc2ccccc12)C(=O)N[C@@H](CC(C)C)C(=O)N[C@H](C=O)C[C@@H]1CCCNC1=O`, for which the CC50 in the series on CCRF-CEM came to 16.3 µM; with Huh-7, 35.1 µM; in [2] (pbmc), 51.5 µM; in series [3] (vero), 53.1 µM. Moreover, the EC50 is 0.3 µM with Human coronavirus OC43 and 2.2 µM in the series with SARS-CoV-2 [1]. Moreover, the results for the EC90 in the series with Human coronavirus OC43 and in the series on SARS-CoV-2 [1] were 0.8 µM and 4.8 µM, respectively.

For `CC(C)(C)[C@H](NC(=O)C(F)(F)F)C(=O)N1C[C@H]2[C@@H]([C@H]1C(=O)N[C@H](C#N)C[C@@H]1CCNC1=O)C2(C)C`, the CC50 in series [4], in series [5], in series [7], in [9], in series [2] (PBMC cells) and in series [3] (Vero cells) was over 100 µM each time. The EC50 was 0.11 µM in the series on SARS-CoV-2 [6]; 0.2 µM with Human coronavirus OC43; 1.9 µM with SARS-CoV-2 [8] (Severe acute respiratory syndrome coronavirus 2, Calu-3, 72 h); 3.7 µM with SARS-CoV-2 [1]; 0.034 µM with SARS-CoV-2 [11]; 0.03 µM with SARS-CoV-2 [12]. Also, the EC50 in the series on SARS-CoV-2 [13] (Calu-3, 48 h) came out at 0.7 µM. Besides, the EC90 in the series with Human coronavirus OC43 stood at 0.3 µM; with SARS-CoV-2 [8] (Severe acute respiratory syndrome coronavirus 2, Calu-3, time 72 hrs), 7.6 µM; in the series with SARS-CoV-2 [1], 5.6 µM; in the series with SARS-CoV-2 [10], 0.3 µM; in the series with SARS-CoV-2 [12], 0.2 µM; in the series on SARS-CoV-2 [13] (Calu-3, time 48 hrs), 5.3 µM.
